Experimental data from PubChem BioAssay (NCI).
“And” between values parts separate entries of the source, which are not always exact repeats. Identical values can stand only once.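 Each compound was tested at five concentrations against cells in 96-well plates for 48 hours. Here, GI50 denotes the concentration required for 50% inhibition of growth. The concentration for full growth arrest is given as TGI.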

Experiments:
Experiment in all cases: DTP human tumour cell line panel, 48 h
[1] = tested on: LXFL 529 NSCLC
[2] = tested on: A549 NSCLC
[3] = tested on: UO-31 renal
[4] = tested on: OVCAR-4 ovarian
[5] = tested on: NCI-H226 lung
[6] = tested on: SR leukemia
[7] = tested on: M19-MEL melanoma
[8] = tested on: SNB-78 CNS
[9] = tested on: RPMI-8226 leukemia
[10] = tested on: MDA-MB-231 breast

SMILES	TGI [1] [µM]	TGI [2] [µM]	TGI [3] [µM]	TGI [4] [µM]	TGI [5] [µM]	TGI [6] [µM]	TGI [7] [µM]	TGI [8] [µM]	TGI [9] [µM]	GI50 [2] [µM]	GI50 [3]	GI50 [4] [µM]	GI50 [5] [µM]	GI50 [6] [µM]	GI50 [9] [µM]	GI50 [10] [µM]	TGI [10] [µM]
CCC12C=CCN3CCC4(C(=C(C(=O)OC)C1)Nc1ccccc14)[C@H]32 (stereo partly specified)	> 100	> 100	> 100	> 100	86.7	34.8	> 100										
COC(=O)C(C(=O)C(=O)Nc1ccc(N)cc1[N+](=O)[O-])c1nc2ccc(Cl)cc2[nH]c1=O (stereo unspecified)		> 100	> 100	> 100	> 100		> 100	> 100	> 100								
NC(=S)N=Nc1c(O)[nH]c2ccccc12		897	504	> 1000	307				708	274	39 µM and 126 µM	239	169	98.2	194	158	385
CN1CCN(Cc2ccc(NC(=O)c3[nH]ncc3Nc3cc(OC4CCCC4)ncn3)cc2)CC1		10.5	11.2	7.18	10.8	6.1			6.71	2.11	1.4 µM	2.07	2.98	1.03	2.94	2.64	7.46
CCN1C(=O)N(CC)C2C1NN=c1s/c(=C\c3cnc(C)n3C)c(=O)n12 (stereo unspecified)		> 100	> 100	> 100	> 100	19.1			> 100	3.99	5 µM	3.76	> 100	0.346	3.47	2.5	31.9
CC(=O)Nc1cc(CN2CCCCC2)c(O)c2ncccc12		> 100	46.8	> 100	86.1	37.5			51.1								55.6
O=C(O)CSc1nnc2c3ccccc3c3ccccc3c2n1		> 100	> 100	> 100	> 100	> 100			99.4								> 100
O=S1(=O)C=C(c2ccccc2)C(c2ccccc2)=C1		5.11	2.6	3.82	3.34	13.9			7.92	2.13	1.15 µM	1.9	1.68	2.8	3.3	1.62	3.09
CC(=O)N1c2ccc(-c3ccc(C(=O)O)cc3)cc2[C@H](Nc2ccc(Cl)cc2)C[C@@H]1C		28.1	13	> 100	19.9	18.7			18.6	1.23	< 0.0251 µM	0.686	1.71	0.0342	0.0615	1.19	> 100
Nc1nc(N)c(-c2ccc(Cl)cc2)c(/C=C/c2ccc([N+](=O)[O-])cc2)n1		47.8	> 100	> 100	> 100	> 100			> 100	3.1	21.4 µM	4.54	20.3	6.25	5.8	8.01	> 100
